Test results taken from ChEMBL document CHEMBL1201862, “PubChem BioAssay data set” (2004).
Active and inactive are the calls of the source.

Experiments:
[1] = target: T1, Estrogen receptor (Homo sapiens, UniProt P03372); test: potentiators of ERα–SRC-1 coactivator binding, dose response, biochemical, TR-FRET, ERα LBD (AID 737)
T1 sequence (P03372 whole entry): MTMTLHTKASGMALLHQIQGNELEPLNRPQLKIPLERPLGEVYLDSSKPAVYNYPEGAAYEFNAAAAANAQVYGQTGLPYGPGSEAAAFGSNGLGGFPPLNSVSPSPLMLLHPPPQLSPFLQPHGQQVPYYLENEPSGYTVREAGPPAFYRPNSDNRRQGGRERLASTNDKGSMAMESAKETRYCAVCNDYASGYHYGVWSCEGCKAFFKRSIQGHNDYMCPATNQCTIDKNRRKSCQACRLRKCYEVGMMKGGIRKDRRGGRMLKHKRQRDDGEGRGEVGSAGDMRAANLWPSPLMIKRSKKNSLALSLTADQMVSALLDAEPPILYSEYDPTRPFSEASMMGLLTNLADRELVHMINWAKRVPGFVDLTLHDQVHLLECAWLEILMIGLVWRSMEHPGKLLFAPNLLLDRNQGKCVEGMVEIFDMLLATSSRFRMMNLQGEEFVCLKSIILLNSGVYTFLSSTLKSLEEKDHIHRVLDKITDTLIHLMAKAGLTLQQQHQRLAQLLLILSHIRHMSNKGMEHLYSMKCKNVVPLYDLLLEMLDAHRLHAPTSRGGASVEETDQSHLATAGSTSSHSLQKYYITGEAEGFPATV

[2] = target: Genome polyprotein (dengue virus type 2, UniProt P29990); test: Dengue-2 NS5 methyltransferase inhibitors, primary screen, biochemical, confirmation dose response (AID 588689); type: functional
Genome polyprotein, sequence (P29990 2492-3391 limits assumed): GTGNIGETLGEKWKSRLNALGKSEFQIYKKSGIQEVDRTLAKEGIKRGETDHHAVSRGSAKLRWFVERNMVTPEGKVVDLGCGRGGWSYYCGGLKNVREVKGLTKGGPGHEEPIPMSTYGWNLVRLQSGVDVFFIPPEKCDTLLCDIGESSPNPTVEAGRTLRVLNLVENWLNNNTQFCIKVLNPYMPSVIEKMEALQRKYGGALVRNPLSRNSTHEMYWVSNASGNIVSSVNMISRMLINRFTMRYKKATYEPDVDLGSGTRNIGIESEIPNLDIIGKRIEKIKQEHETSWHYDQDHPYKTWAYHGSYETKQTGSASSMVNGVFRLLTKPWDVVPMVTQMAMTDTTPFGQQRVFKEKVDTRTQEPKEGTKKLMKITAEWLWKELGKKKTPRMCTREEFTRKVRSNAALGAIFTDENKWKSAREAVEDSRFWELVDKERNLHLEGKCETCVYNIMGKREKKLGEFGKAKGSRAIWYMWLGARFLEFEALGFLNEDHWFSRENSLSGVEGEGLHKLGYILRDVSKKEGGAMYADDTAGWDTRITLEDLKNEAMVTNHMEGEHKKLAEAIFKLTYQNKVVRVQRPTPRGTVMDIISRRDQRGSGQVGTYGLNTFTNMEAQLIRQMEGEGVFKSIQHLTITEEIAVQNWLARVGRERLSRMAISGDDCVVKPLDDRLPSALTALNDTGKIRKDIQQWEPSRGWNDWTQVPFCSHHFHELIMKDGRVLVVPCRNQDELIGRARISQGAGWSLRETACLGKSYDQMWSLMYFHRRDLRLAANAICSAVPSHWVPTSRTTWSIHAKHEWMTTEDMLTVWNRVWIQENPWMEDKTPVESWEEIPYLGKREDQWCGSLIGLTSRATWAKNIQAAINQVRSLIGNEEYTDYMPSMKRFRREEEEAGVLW

[3] = target: T2, High affinity choline transporter 1 (Homo sapiens, UniProt Q9GZV3); test: CHT inhibitors, dose response, cell-based, 5-point CRC, membrane potential dye (AID 504840); type: functional
T2 sequence (Q9GZV3 whole entry): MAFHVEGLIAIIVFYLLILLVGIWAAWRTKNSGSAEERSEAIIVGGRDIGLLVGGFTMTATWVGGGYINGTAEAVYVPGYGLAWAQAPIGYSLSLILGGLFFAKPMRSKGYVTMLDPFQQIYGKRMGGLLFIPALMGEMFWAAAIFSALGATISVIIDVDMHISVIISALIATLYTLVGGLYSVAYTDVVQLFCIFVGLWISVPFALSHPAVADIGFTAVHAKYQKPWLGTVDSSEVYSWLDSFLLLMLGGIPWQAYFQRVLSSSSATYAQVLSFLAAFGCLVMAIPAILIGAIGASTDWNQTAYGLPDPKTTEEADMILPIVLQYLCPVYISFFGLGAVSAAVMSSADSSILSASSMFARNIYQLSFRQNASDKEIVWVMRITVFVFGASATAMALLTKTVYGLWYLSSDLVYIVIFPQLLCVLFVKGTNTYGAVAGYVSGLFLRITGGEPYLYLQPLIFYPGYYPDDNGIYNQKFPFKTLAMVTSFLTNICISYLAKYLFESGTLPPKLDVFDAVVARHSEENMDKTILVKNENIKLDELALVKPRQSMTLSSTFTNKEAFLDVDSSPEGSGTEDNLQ

[4] = Shn3 3'UTR reporter inhibitors, dose response, cell-based, Clone20 osteoblasts, firefly luciferase, cherry-picked (AID 624132); type: functional;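 note: firefly luciferase luminescence from reporter carrying the Shn3 3'UTR in osteoblasts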
[5] = tested on: Vero; test: Vero cell cytotoxicity, cytotoxicity control for flavivirus capping enzyme inhibitors (AID 588742); type: functional; details: Chlorocebus sabaeus
[6] = target: T3, Hepatocyte nuclear factor 4-alpha (Homo sapiens, UniProt P41235); type: functional, cell-based;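 note: biochemical luminescence-based dose-response counterscreen measuring inhibition of HNF4 dimerization, run alongside a screen for blockers of ABHD5–perilipin-5 interaction; split luciferase complementation of HNF4 fusion proteins in cell lysate measuring dimerization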
T3 sequence (P41235 whole entry): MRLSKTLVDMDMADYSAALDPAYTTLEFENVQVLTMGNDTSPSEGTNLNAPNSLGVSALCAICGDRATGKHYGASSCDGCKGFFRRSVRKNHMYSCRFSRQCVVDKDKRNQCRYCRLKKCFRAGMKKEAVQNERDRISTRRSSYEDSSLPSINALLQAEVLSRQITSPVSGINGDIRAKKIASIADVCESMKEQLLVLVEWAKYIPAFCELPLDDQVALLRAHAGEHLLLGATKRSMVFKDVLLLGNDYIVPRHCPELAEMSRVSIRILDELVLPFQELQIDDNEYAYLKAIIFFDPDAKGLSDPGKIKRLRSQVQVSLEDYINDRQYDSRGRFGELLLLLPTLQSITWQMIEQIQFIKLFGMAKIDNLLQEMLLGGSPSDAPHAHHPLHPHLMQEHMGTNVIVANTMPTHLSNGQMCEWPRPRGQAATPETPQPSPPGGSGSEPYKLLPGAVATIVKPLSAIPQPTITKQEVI

[7] = target: Potassium voltage-gated channel subfamily KQT member 2 (Rattus norvegicus, UniProt O88943, W236L); test: KCNQ2 channel potentiators, dose response, mechanism study for KCNQ2 potentiator project, cell-based, automated electrophysiology (AID 2603); type: functional
Potassium voltage-gated channel subfamily KQT member 2, sequence (O88943 whole entry W236L): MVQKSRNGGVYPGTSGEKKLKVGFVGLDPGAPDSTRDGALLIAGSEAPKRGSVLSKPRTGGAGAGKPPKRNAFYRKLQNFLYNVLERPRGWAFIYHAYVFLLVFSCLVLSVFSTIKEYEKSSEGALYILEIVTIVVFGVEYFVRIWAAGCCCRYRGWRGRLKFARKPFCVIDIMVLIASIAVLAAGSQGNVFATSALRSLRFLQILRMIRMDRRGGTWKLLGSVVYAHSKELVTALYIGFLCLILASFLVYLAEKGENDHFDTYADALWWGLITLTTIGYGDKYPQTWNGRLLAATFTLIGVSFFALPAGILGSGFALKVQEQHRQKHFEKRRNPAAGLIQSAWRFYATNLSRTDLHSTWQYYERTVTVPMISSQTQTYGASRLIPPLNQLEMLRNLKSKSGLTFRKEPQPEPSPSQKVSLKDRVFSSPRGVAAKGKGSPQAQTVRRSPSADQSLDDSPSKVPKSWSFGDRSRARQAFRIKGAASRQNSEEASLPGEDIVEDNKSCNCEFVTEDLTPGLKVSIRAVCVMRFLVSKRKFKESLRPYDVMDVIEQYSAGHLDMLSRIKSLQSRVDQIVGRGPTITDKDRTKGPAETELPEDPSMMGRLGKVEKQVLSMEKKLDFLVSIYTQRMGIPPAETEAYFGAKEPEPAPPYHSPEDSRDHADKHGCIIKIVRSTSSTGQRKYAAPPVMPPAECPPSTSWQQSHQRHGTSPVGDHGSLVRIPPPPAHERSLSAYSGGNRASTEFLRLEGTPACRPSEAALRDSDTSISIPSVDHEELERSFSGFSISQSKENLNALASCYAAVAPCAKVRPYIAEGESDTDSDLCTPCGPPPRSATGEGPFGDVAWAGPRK

[8] = HepG2 cell cytotoxicity, dose response, cytotoxicity control for Shn3 inhibitor project, CellTiter-Glo, cherry-picked (AID 624134); type: functional, cell-based
[9] = target: ATP-binding cassette sub-family B member 6 (Homo sapiens, UniProt Q9NP58); test: ABCB6 transporter inhibitors, porphyrin accumulation, dose response, flow cytometry, K562-ABCB6 cells, cherry pick 02 (AID 624487); type: functional; details: read-out: EC50_MICROM
ATP-binding cassette sub-family B member 6, sequence (Q9NP58 whole entry): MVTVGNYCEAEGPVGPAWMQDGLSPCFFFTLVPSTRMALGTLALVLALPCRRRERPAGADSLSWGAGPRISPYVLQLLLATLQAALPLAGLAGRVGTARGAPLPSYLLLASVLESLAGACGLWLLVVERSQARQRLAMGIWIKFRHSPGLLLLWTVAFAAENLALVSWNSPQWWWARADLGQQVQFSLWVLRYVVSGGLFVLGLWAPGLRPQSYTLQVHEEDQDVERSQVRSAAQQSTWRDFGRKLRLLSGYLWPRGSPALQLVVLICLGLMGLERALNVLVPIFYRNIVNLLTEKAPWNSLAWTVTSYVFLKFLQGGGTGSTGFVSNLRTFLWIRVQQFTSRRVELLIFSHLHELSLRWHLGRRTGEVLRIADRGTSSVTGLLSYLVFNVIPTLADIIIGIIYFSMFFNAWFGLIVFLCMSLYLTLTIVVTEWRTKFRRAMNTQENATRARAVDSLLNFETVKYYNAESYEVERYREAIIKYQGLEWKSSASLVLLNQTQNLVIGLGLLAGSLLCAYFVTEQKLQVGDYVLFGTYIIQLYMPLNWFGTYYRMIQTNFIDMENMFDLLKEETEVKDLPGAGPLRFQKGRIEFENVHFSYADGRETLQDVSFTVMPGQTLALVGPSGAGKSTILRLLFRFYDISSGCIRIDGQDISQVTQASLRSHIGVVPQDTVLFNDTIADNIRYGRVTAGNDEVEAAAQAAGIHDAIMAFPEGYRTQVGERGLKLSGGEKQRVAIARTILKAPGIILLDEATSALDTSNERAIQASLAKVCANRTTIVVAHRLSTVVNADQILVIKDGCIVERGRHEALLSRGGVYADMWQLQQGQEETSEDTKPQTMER

[10] = target: T4, Ubiquitin-conjugating enzyme E2 N (Homo sapiens, UniProt P61088); type: functional
T4 sequence (P61088 whole entry): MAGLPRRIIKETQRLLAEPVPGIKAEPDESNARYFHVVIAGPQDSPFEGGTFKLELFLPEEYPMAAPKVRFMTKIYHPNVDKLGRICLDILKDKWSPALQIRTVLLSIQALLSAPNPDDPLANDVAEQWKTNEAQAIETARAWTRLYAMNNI

[11] = target: T4, Ubiquitin-conjugating enzyme E2 N; type: functional; remark: listed apart in the source
[12] = control 3'UTR Renilla luciferase suppression, dose response, counter-screen for Shn3 inhibitor project, cell-based, Clone20-Shn3RL, cherry-picked (AID 624133); type: functional
[13] = target: T5, Bcl-2-related protein A1 (Mus musculus, UniProt Q07440); type: functional;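 note: confirmatory dose–response counterscreen on Bfl-1, used to check hits from a UBC13 polyubiquitin inhibitor campaign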
T5 sequence (Q07440 whole entry): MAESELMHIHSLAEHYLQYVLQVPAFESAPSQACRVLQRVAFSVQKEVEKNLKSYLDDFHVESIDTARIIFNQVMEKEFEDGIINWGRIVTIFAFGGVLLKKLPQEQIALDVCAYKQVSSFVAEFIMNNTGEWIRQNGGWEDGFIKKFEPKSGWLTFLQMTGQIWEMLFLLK

[14] = target: T2, High affinity choline transporter 1; test: CHT inhibitors, dose response, cell-based, 10-point CRC, membrane potential dye (AID 588401); type: functional;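 note: membrane potential dye fluorescence of choline-evoked depolarization via CHT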
[15] = target: T6, Protein RecA (Mycobacterium tuberculosis, UniProt P9WHJ3); test: Fluorescence Cell-Free Homogeneous Dose Retest to Identify Inhibitors of RecA-Intein Splicing Activity. [Related pubchem assays (depositor defined):AID2097, AID2223, AID489010, AID492950]; type: functional
T6 sequence (P9WHJ3 whole entry): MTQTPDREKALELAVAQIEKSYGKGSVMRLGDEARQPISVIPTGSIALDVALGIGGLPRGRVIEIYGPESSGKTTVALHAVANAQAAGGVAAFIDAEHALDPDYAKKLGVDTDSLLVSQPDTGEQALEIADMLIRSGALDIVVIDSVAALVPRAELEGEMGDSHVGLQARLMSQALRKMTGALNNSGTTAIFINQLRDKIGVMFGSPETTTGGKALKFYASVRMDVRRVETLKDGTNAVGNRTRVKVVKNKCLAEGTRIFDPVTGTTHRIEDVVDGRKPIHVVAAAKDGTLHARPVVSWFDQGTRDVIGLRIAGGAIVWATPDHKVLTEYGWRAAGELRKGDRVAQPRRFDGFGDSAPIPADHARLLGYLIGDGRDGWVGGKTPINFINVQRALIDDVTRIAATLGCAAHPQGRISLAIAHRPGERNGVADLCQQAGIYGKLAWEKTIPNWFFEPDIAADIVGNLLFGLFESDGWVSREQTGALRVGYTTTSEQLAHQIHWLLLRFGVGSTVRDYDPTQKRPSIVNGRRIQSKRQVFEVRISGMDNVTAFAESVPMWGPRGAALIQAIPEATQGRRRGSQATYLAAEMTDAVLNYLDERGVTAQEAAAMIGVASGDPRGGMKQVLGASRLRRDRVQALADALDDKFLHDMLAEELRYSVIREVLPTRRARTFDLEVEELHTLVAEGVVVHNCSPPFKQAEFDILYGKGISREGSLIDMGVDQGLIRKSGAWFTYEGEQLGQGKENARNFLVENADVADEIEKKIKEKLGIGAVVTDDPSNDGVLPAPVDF

[16] = target: T7, Mannose-6-phosphate isomerase (Homo sapiens, UniProt P34949); test: inhibitors of human PMI, primary screen, biochemical, fluorescence intensity, coupled assay (AID 1209)
T7 sequence (P34949 whole entry): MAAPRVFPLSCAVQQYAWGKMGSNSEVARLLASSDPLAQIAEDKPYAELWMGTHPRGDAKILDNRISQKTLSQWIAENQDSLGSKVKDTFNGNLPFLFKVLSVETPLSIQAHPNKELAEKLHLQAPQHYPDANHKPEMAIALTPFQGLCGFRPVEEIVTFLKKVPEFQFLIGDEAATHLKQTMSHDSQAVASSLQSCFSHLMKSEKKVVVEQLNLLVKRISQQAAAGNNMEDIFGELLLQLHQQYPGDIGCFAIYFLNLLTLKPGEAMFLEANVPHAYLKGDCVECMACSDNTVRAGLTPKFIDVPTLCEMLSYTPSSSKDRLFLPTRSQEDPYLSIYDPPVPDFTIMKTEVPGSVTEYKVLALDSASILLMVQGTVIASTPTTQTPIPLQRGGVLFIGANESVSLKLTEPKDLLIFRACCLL

[17] = tested on: INS1; test: beta cell apoptosis inhibitors, cytokine rescue, dose response, luminescence, retest (AID 449756); type: functional, cell-based; details: Rattus norvegicus;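 note: cell death triggered by IL-1 beta plus TNF-alpha plus IFN-gamma mixture; protective hits raise ATP signal compared with cytokine alone wells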
[18] = Luminescence Cell-Based Dose Retest to Confirm Inhibitors of Cancer Stem Cells. [Related pubchem assays (depositor defined):AID2717, AID2721]; type: functional; details: Homo sapiens
[19] = inhibitors of intracellular T. cruzi replication, confirmation, NIH3T3 host cells, beta-gal luminescence (AID 2044); type: functional, cell-based;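 note: intracellular parasites grown in NIH/3T3 mouse fibroblasts as host cells; luminescent beta-galactosidase reporter signal from transgenic T. cruzi replicating inside host cells; inhibitors lower the luminescence signal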
[20] = cytotoxicity toward NIH3T3 fibroblasts, dose response, counter-screen, cell-based, ATP luminescence, mouse fibroblasts (AID 2010); type: functional;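 note: cells exposed to compound for about 90 hours before reading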
[21] = inhibitors of Vif binding to APOBEC3G peptide, primary screen, biochemical, TR-FRET, GST-Vif 1-94, biotin-A3G peptide, dose response retest (AID 1117319); type: functional;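 note: TR-FRET signal of purified GST-Vif binding a biotinylated A3G peptide; inhibitors lower the FRET signal by blocking Vif and A3G binding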
[22] = target: T8, Estrogen receptor beta (Homo sapiens, UniProt Q92731);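 note: recombinant ER-beta bound to coactivator SRC1 peptide in presence of estradiol agonist; inhibitors block coactivator peptide binding and lower the FRET signal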
T8 sequence (Q92731 whole entry, the tested form may be a part): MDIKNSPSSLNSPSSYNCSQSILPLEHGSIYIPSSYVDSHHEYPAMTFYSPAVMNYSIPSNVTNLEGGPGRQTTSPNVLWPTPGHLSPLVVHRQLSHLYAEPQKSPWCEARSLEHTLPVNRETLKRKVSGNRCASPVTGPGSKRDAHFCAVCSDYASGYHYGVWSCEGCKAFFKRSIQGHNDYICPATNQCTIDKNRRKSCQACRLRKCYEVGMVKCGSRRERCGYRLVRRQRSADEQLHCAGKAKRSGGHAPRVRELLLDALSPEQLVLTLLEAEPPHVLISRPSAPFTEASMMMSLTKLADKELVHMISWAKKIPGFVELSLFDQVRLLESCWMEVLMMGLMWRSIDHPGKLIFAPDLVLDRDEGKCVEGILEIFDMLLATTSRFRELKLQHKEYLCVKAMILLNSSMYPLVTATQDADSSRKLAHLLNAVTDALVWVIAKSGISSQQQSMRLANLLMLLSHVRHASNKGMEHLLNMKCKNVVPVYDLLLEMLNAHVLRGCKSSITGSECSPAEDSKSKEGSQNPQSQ

[23] = target: T9, Carboxy-terminal domain RNA polymerase II polypeptide A small phosphatase 1 (Homo sapiens, UniProt Q9GZU7); test: inhibitors of CTDSP1, concentration-response testing, biochemical assay, absorbance-based, actives from ultra-high-throughput screening (AID 540297); type: functional
T9 sequence (Q9GZU7 whole entry): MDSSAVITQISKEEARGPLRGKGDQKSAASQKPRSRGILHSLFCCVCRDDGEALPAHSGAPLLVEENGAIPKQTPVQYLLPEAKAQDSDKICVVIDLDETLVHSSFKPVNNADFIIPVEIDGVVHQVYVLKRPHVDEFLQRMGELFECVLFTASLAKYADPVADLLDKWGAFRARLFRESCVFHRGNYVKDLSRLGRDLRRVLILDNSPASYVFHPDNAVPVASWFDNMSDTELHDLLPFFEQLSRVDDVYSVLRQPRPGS

[24] = target: T8, Estrogen receptor beta; test: ERβ–SRC-3 coactivator interaction inhibitors, confirmation, orthogonal assay, biochemical, ELISA, streptavidin-HRP readout (AID 1060)
[25] = M. tuberculosis H37Rv growth inhibitors, H37Rv strain (AID 1626); type: functional
[26] = cells
[27] = target: Aryl hydrocarbon receptor (Homo sapiens, UniProt P35869); test: Luminescence-based cell-based high throughput dose response assay for activators of the Aryl Hydrocarbon Receptor (AHR). [Related pubchem assays: 2796 (Primary screen (AHR activators in singlicate)), 2845 (Confirmation screen (AHR activators in triplicate)), 434939 (Counterscreen (PXR activators in triplicate)), 2804 (Summary (AHR activators))]; type: ADME
Aryl hydrocarbon receptor, sequence (P35869 whole entry): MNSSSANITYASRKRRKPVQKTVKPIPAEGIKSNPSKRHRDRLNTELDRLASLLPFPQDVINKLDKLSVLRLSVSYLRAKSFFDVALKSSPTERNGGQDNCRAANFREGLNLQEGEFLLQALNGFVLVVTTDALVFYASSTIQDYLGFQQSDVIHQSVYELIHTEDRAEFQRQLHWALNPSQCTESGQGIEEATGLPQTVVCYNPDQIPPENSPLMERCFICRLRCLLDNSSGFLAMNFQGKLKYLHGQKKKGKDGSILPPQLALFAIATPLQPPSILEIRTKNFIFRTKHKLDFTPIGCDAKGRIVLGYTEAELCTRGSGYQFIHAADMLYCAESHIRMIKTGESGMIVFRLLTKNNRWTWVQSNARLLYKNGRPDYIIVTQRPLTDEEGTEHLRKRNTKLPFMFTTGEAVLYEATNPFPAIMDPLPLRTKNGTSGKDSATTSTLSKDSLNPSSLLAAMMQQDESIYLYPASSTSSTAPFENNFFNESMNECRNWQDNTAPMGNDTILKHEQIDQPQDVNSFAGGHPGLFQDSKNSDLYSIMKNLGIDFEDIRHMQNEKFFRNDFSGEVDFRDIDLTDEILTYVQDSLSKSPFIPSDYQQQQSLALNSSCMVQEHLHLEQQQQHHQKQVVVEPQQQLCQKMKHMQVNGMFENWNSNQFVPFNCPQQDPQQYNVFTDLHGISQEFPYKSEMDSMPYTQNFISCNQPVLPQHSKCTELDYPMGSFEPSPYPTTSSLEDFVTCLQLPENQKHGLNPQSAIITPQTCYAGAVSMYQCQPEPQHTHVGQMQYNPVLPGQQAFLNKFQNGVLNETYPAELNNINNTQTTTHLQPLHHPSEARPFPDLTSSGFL

[28] = target: NADPH oxidase 1 (Homo sapiens, UniProt Q9Y5S8); type: functional, cell-based;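 note: Cell-based assay with luminescence read-out, IC50 derived from inhibitor dose-response curves; intracellular ROS from endogenous NOX1 in intact HT29 colon cancer cells; potency of inhibitors that lower the ROS luminescence signal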
NADPH oxidase 1, sequence (Q9Y5S8 whole entry): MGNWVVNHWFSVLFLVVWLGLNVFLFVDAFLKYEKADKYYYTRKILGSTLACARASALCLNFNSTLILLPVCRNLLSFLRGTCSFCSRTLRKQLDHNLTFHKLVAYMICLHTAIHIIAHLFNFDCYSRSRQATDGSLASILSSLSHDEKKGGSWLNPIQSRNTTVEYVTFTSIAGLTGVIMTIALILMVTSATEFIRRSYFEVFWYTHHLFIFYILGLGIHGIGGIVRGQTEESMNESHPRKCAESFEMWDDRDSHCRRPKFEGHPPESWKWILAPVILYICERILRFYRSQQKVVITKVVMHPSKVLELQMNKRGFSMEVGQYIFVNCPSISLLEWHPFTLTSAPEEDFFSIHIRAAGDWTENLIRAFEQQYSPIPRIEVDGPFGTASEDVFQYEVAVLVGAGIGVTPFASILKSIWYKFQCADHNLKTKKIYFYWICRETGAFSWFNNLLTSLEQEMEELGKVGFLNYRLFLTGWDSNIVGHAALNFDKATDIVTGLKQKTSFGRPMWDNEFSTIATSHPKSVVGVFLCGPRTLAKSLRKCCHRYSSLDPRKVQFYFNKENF

Cc1nn(-c2ccc(Cl)cc2)c2sc(C(=O)N3CCN(c4ccccn4)CC3)cc12
EC50 [1]: 12.8 µM (active)

CCCc1nnc(NC(=O)c2nc(S(=O)(=O)Cc3cccc(C)c3)ncc2Cl)s1
IC50 [2]: > 100 µM (active) | IC50 [3]: 3.9 µM (active) | AC50 [4]: 2.55 µM (active) | CC50 [5]: > 40 µM (active) | IC50 [6]: 5.71 µM (active) | EC50 [7]: 2.89 µM (active) | AC50 [8]: > 70 µM (inactive) | EC50 [9]: 60.6 µM (active) | IC50 [10]: > 20 µM (inactive) | IC50 [11]: 12.3 µM (active) | AC50 [12]: 10 µM (active) | IC50 [13]: > 20 µM (inactive) | IC50 [14]: 3.16 µM (active) | EC50 [15]: > 380 µM (inactive)

CC1=[N+](C)c2ccc3ccccc3c2C1(C)C
IC50 [16]: > 50 µM (not active) | AC50 [17]: 6.8 µM (active) | AC50 [18]: 27.4 µM (active) | EC50 [19]: 2.83 µM (active) | EC50 [20]: > 60 µM (not active)

CCCCN(CCCC)S(=O)(=O)c1ccc(NC(=O)Cc2cccs2)cc1
IC50 [21]: > 100 µM (active) | IC50 [22]: 18.8 µM (active) | IC50 [23]: 7.14 µM (active) | IC50 [24]: 1.05 µM (not active)

O=C(O)/C=C/C(=O)Nc1ccc(-n2nccc2C(F)(F)F)cc1
IC50 [25]: > 100 µM (active)

O=C(CCC1CCCN(Cc2ccc3c(c2)OCCO3)C1)NCc1ccc(F)c(F)c1 (stereo unspecified)
EC50 [26]: 0.033 µM (active) | EC50 [19]: < 0.1 µM (active) | EC50 [20]: > 60 µM (not active)

Cc1ccc[n+](CC(=O)c2ccc(Br)cc2)c1C
IC50 [3]: 13.8 µM (active) | EC50 [27]: 6.77 µM (active)

O=[N+]([O-])c1ccccc1-c1nc(-c2ccccc2)c(-c2ccccc2)[nH]1
IC50 [28]: > 17 µM (not active)
